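Method: 48-hour compound exposure of cells in 96-well plates, five concentrations, linear interpolation of endpoints. GI50: concentration for 50% inhibition of growth. At the TGI there is no net growth.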
Experiments:
Assay in all cases: NCI-60 cell line screen, 48 h
OVCAR-5 ovarian = test system: OVCAR-5 ovarian
MCF7 breast = test system: MCF7 breast
COLO 205 colon = test system: COLO 205 colon
UACC-257 melanoma = test system: UACC-257 melanoma
K-562 leukemia = test system: K-562 leukemia
NCI/ADR-RES ovarian = test system: NCI/ADR-RES ovarian
KM12 colon = test system: KM12 colon
UACC-62 melanoma = test system: UACC-62 melanoma
OVCAR-4 ovarian = test system: OVCAR-4 ovarian
HOP-92 NSCLC = test system: HOP-92 NSCLC

For `O=C1CC(C(CC(=O)c2ccccc2)c2ccccc2)C(=O)c2ccccc2N1` (centres undefined), the TGI (OVCAR-5 ovarian) was greater than 100 µM, the TGI (MCF7 breast) was 80.1 µM and the TGI (COLO 205 colon) was greater than 100 µM. For the same compound, the TGI (UACC-257 melanoma) was greater than 100 µM, the TGI (K-562 leukemia) was greater than 100 µM and the TGI (NCI/ADR-RES ovarian) was 75.5 µM. For the same compound, the TGI (KM12 colon) was greater than 100 µM and the TGI (UACC-62 melanoma) was greater than 100 µM.

In the case of `Cc1ccnc2nc(N)ccc12`, the TGI (OVCAR-4 ovarian) is reported as greater than 100 µM, the TGI (OVCAR-5 ovarian) is reported as greater than 100 µM and the TGI (COLO 205 colon) is reported as greater than 100 µM. For the same compound, the TGI (UACC-257 melanoma) was greater than 100 µM, the TGI (K-562 leukemia) was greater than 100 µM and the TGI (NCI/ADR-RES ovarian) was greater than 100 µM. It also gave a TGI (KM12 colon) greater than 100 µM and a TGI (UACC-62 melanoma) greater than 100 µM.

`CCOC(=O)C(C)Sc1nnc(COc2ccccc2OC)n1-c1ccccc1` (centres undefined) gave a TGI (OVCAR-4 ovarian) greater than 100 µM, a TGI (OVCAR-5 ovarian) greater than 100 µM and a TGI (COLO 205 colon) greater than 100 µM. The TGI (HOP-92 NSCLC) was greater than 100 µM, the TGI (UACC-257 melanoma) was greater than 100 µM and the TGI (K-562 leukemia) was greater than 100 µM. For the same compound, the TGI (KM12 colon) was greater than 100 µM and the TGI (UACC-62 melanoma) was greater than 100 µM.

`COc1ccccc1N=Nc1c(O)c(S(=O)(=O)O)cc2cc(S(=O)(=O)O)ccc12` gave a TGI (OVCAR-4 ovarian) greater than 100 µM, a TGI (OVCAR-5 ovarian) greater than 100 µM and a TGI (COLO 205 colon) greater than 100 µM. For the same compound, the TGI (HOP-92 NSCLC) was greater than 100 µM, the TGI (UACC-257 melanoma) was greater than 100 µM and the TGI (K-562 leukemia) was greater than 100 µM. The TGI (NCI/ADR-RES ovarian) was greater than 100 µM, the TGI (KM12 colon) was greater than 100 µM and the TGI (UACC-62 melanoma) was greater than 100 µM.

`O=C1Nc2cc([N+](=O)[O-])c(Br)cc2C1=O` was tested, and the TGI (OVCAR-4 ovarian) was 30.5 µM, the TGI (COLO 205 colon) was 35 µM and the TGI (HOP-92 NSCLC) was 43.1 µM. For the same compound, the TGI (UACC-257 melanoma) was 35.1 µM, the TGI (K-562 leukemia) was 55.7 µM and the TGI (KM12 colon) was greater than 100 µM. For the same compound, the TGI (UACC-62 melanoma) was 42.4 µM.

For `CC1(C)CC2(C)CC1CC2(O)c1ccccc1` (centres undefined), the TGI (OVCAR-4 ovarian) was greater than 100 µM, the TGI (OVCAR-5 ovarian) was greater than 100 µM and the TGI (COLO 205 colon) was greater than 100 µM. It also gave a TGI (HOP-92 NSCLC) greater than 100 µM, a TGI (UACC-257 melanoma) greater than 100 µM and a TGI (K-562 leukemia) greater than 100 µM. The TGI (KM12 colon) was greater than 100 µM and the TGI (UACC-62 melanoma) was greater than 100 µM.

`CCCc1c(C(=O)OCC)[nH]c(-c2ccc(-c3[nH]c(C(=O)OCC)c(CCC)c3C(=O)OCC)s2)c1C(=O)OCC` showed a TGI (OVCAR-4 ovarian) greater than 100 µM, a TGI (OVCAR-5 ovarian) greater than 100 µM and a TGI (COLO 205 colon) greater than 100 µM. For the same compound, the TGI (HOP-92 NSCLC) was 85.2 µM, the TGI (UACC-257 melanoma) was greater than 100 µM and the TGI (K-562 leukemia) was greater than 100 µM. The TGI (KM12 colon) was greater than 100 µM and the TGI (UACC-62 melanoma) was greater than 100 µM.

`Cc1cccc2nc3c(=O)[nH]c(=O)nc-3n(C)c12` gave a TGI (OVCAR-4 ovarian) greater than 100 µM, a TGI (OVCAR-5 ovarian) greater than 100 µM and a TGI (MCF7 breast) greater than 100 µM. For the same compound, the TGI (COLO 205 colon) was greater than 100 µM, the TGI (UACC-257 melanoma) was greater than 100 µM and the TGI (K-562 leukemia) was greater than 100 µM. It also gave a TGI (NCI/ADR-RES ovarian) greater than 100 µM, a TGI (KM12 colon) greater than 100 µM and a TGI (UACC-62 melanoma) greater than 100 µM.

`O=C1C=C2CCC[C@H]3OC(=O)C[C@@]23CC1` showed a TGI (OVCAR-4 ovarian) greater than 100 µM, a TGI (OVCAR-5 ovarian) greater than 100 µM and a TGI (COLO 205 colon) greater than 100 µM. It also gave a TGI (HOP-92 NSCLC) greater than 100 µM, a TGI (UACC-257 melanoma) greater than 100 µM and a TGI (K-562 leukemia) greater than 100 µM. It also gave a TGI (NCI/ADR-RES ovarian) greater than 100 µM, a TGI (KM12 colon) greater than 100 µM and a TGI (UACC-62 melanoma) greater than 100 µM.

In the case of `N#C/C(=C\c1ccc([N+](=O)[O-])s1)c1nc2cc(Cl)ccc2s1`, the GI50 (COLO 205 colon) is reported as 1.55 µM, the TGI (COLO 205 colon) is reported as 4.06 µM and the GI50 (HOP-92 NSCLC) is reported as 0.287 µM. The TGI (HOP-92 NSCLC) was 1.6 µM, the GI50 (K-562 leukemia) was 0.264 µM and the TGI (K-562 leukemia) was greater than 100 µM. For the same compound, the GI50 (NCI/ADR-RES ovarian) was 1.06 µM, the TGI (NCI/ADR-RES ovarian) was 6.07 µM and the GI50 (KM12 colon) was 1.44 µM. The TGI (KM12 colon) was 3.84 µM.

With `CN1CN(c2ccccc2)C2(CCN(CCCCCCF)CC2)C1=O` the TGI (OVCAR-5 ovarian) was greater than 100 µM, the TGI (MCF7 breast) was 60.6 µM and the TGI (COLO 205 colon) was 47.3 µM. The TGI (UACC-257 melanoma) was greater than 100 µM, the TGI (K-562 leukemia) was greater than 100 µM and the TGI (NCI/ADR-RES ovarian) was 40.3 µM. The TGI (KM12 colon) was greater than 100 µM and the TGI (UACC-62 melanoma) was greater than 100 µM.

For `Cc1ccc(-n2cc(-c3ccc(Cl)cc3)c3c(NN)ncnc32)cc1`, the TGI (OVCAR-4 ovarian) was 19.2 µM, the TGI (OVCAR-5 ovarian) was 43.2 µM and the TGI (COLO 205 colon) was 11.2 µM. It also gave a TGI (HOP-92 NSCLC) of 9.04 µM, a TGI (UACC-257 melanoma) of 16.1 µM and a TGI (K-562 leukemia) of 12 µM. It also gave a TGI (NCI/ADR-RES ovarian) of 15.3 µM, a TGI (KM12 colon) of 29 µM and a TGI (UACC-62 melanoma) of 13.2 µM.

`Cc1cn(C2CC(CCCO)C(CO)O2)c(=O)[nH]c1=O` (centres undefined) was tested, and the TGI (OVCAR-4 ovarian) was greater than 100 µM, the TGI (OVCAR-5 ovarian) was greater than 100 µM and the TGI (COLO 205 colon) was greater than 100 µM. For the same compound, the TGI (UACC-257 melanoma) was greater than 100 µM, the TGI (K-562 leukemia) was greater than 100 µM and the TGI (KM12 colon) was greater than 100 µM. The TGI (UACC-62 melanoma) was greater than 100 µM.

Compound `CC1(C)C2CCC3(OCCO3)C1C(O)C2` (centres undefined) has a TGI (OVCAR-4 ovarian) greater than 100 µM, a TGI (OVCAR-5 ovarian) greater than 100 µM and a TGI (HOP-92 NSCLC) greater than 100 µM. It also gave a TGI (UACC-257 melanoma) greater than 100 µM, a TGI (K-562 leukemia) greater than 100 µM and a TGI (KM12 colon) greater than 100 µM. For the same compound, the TGI (UACC-62 melanoma) was greater than 100 µM.

`CCSCN(C)c1nc(N(C)C)nc(N(C)C)n1` gave a TGI (OVCAR-4 ovarian) greater than 100 µM, a TGI (OVCAR-5 ovarian) greater than 100 µM and a TGI (COLO 205 colon) greater than 100 µM. It also gave a TGI (HOP-92 NSCLC) greater than 100 µM, a TGI (UACC-257 melanoma) greater than 100 µM and a TGI (K-562 leukemia) greater than 100 µM. The TGI (KM12 colon) was greater than 100 µM and the TGI (UACC-62 melanoma) was greater than 100 µM.

Work on `CC(=O)OC12c3ccccc3C(c3ccccc31)C1C(=O)N(c3ccccn3)C(=O)C12` (centres undefined) yielded a TGI (OVCAR-4 ovarian) greater than 100 µM, a TGI (OVCAR-5 ovarian) greater than 100 µM and a TGI (MCF7 breast) greater than 100 µM. For the same compound, the TGI (COLO 205 colon) was greater than 100 µM, the TGI (UACC-257 melanoma) was greater than 100 µM and the TGI (K-562 leukemia) was greater than 100 µM. The TGI (NCI/ADR-RES ovarian) was greater than 100 µM, the TGI (KM12 colon) was greater than 100 µM and the TGI (UACC-62 melanoma) was greater than 100 µM.

For `COc1cc(C2C(Cl)C(=O)N2NC(=O)c2ccc(NC(C)=O)cc2)ccc1O` (centres undefined), the TGI (OVCAR-4 ovarian) was greater than 100 µM, the TGI (OVCAR-5 ovarian) was greater than 100 µM and the TGI (COLO 205 colon) was greater than 100 µM. The TGI (HOP-92 NSCLC) was greater than 100 µM, the TGI (UACC-257 melanoma) was greater than 100 µM and the TGI (K-562 leukemia) was greater than 100 µM. The TGI (UACC-62 melanoma) was greater than 100 µM.

In the case of `COC(=O)CC(C(C(=O)OCc1ccccc1)C(C)O)N1C(=O)OC(c2ccccc2)C1c1ccccc1` (centres undefined), the TGI (OVCAR-4 ovarian) is reported as greater than 100 µM, the TGI (COLO 205 colon) is reported as greater than 100 µM and the TGI (UACC-257 melanoma) is reported as greater than 100 µM. For the same compound, the TGI (K-562 leukemia) was greater than 100 µM and the TGI (UACC-62 melanoma) was greater than 100 µM.

Source: PubChem BioAssay (NCI)
